Experiments:
BV-2 = assay: Anti-neuroinflammatory activity in mouse BV-2 cells assessed as inhibition of LPS-induced NO production incubated for 24 hrs by microplate reader analysis; format: functional, cell-based; settings: BV-2, 24 h
[1] = Cytotoxicity against mouse BV-2 cells assessed as reduction in cell viability by crystal violet staining based assay; format: toxicity
[2] = Therapeutic index, ratio of IC50 for cytotoxicty against mouse BV-2 cells assessed as reduction in cell viability by crystal violet staining based assay to IC50 for nti-neuroinflammatory activity in mouse BV-2 cells assessed as inhibition of LPS-induced NO production; format: toxicity; settings: read-out: Ratio IC50
[3] = Toxicity in BALB/c mouse assessed as cognitive impairment by measuring time spent on new arm at 10 mg/kg, ip administered once daily for 3 days and measured after 45 mins by Y maze test; format: organism-based; settings: in vivo, 72.75 h, time 4365 min

With `C#CCOc1cc(CCCCC)cc(O)c1[C@@H]1C=C(C)CC[C@H]1C(=C)C` the IC50 (BV-2) was 99.6 µM, the IC50 [1] was 65 µM and the selectivity ratio [2] was 1.2.
With `C=C(C)[C@@H]1CCC(C)=C[C@H]1c1c(O)cc(CCCCCCCCCCCC)cc1O` the IC50 [1] was > 200 µM.
`C=C(C)[C@@H]1CCC(C)=C[C@H]1c1c(O)cc(CC)cc1O` showed an IC50 (BV-2) of 2.5 µM, an IC50 [1] of 22.6 µM and a selectivity ratio [2] of 9.1.
Work on `C=C(C)[C@@H]1CCC(C)=C[C@H]1c1c(O)cc(C(C)n2cccc2)cc1O` (stereo partly specified) yielded an IC50 (BV-2) of 23.9 µM, an IC50 [1] of 155 µM and a selectivity ratio [2] of 6.5.
`C=C(C)[C@@H]1CCC(C)=C[C@H]1c1c(O)cc(CCCCC)cc1OC` showed an IC50 (BV-2) of 37.2 µM, an IC50 [1] of 58.2 µM and a selectivity ratio [2] of 1.6.
With `C#CCOc1cc(CCCCC)cc(OCC#C)c1[C@@H]1C=C(C)CC[C@H]1C(=C)C` the IC50 (BV-2) was 200 µM and the IC50 [1] was > 200 µM.
In the case of `C=C(C)[C@@H]1CCC(C)=C[C@H]1c1c(OC)cc(CCCCC)cc1OC`, the IC50 (BV-2) is reported as > 20 µM and the IC50 [1] is reported as > 200 µM.
`C=C(C)[C@@H]1CCC(C)=C[C@H]1c1c(O)cc(CCCCCC)cc1O` gave an IC50 (BV-2) of 2.1 µM, an IC50 [1] of 19 µM and a selectivity ratio [2] of 9.
With `C=C(C)[C@@H]1CCC(C)=C[C@H]1c1c(O)cc(CCCCC)cc1OCCC` the IC50 [1] was > 200 µM.
For `CCCCCc1cc(O)c2c(c1)OC(C)(C)[C@@H]1CCC(C)=C[C@@H]21` [DRONABINOL], the Activity [3] was “Toxic”.
In the case of `C=C(C)[C@@H]1CCC(C)=C[C@H]1c1c(OCCC)cc(CCCCC)cc1OCCC`, the IC50 [1] is reported as > 200 µM.
For `C=C(C)[C@@H]1CCC(C)=C[C@H]1c1c(O)cc(CCCC)cc1O`, the IC50 (BV-2) was 5 µM, the IC50 [1] was 11.1 µM and the selectivity ratio [2] was 2.2.
